In PMC8318587, “Structure-guided microbial targeting of antistaphylococcal prodrugs” (eLife, 2021):
Values after ≈ are worked out from the molar mass of the structure shown. Where two headings read alike, the source gives them in different places.

Key:
[1] = tested on: S. aureus (JE2, NTML transposon mutants, Newman resistant isolates); assay: POM-HEX half-maximal growth inhibitory concentration (IC50), microtiter broth dilution; type: cell-based; settings: Staphylococcus aureus
Method: Half-maximal inhibitory concentration (IC50) determination was performed using microtiter broth dilution in clear 96-well plates ([European Committee for Antimicrobial Susceptibility Testing (EUCAST) of the ES of CM and ID (ESCMID), 2000]). Briefly, POM-HEX was added to 75 µL LB media at a final concentration of 20–50 µM POM-HEX and 0.5% DMSO, with POM-HEX concentrations varying according to resistant strain. Subsequently, POM-HEX was serially diluted in LB media containing 0.5% DMSO for a total of 10 dilutions. Two wells were left without drug, one used to define 100% growth, and the other used to control for media contamination and to define 0% growth. Seventy-five microliters of mid-log phase S. aureus diluted to 1 × 10^5 colony forming units/mL were subsequently added to the plate. Following inoculation, plates were incubated at 37°C with shaking, and OD600 measurements were taken every 20 min for a total of 16 hr. Half-maximal inhibitory concentrations (IC50) were determined by fitting the OD600 of each condition following 10 hr of growth to a nonlinear regression using GraphPad Prism software. Experiments were performed in triplicate with technical duplicates.
Generation of POM-HEX resistant strains was performed by plating log-phase S. aureus Newman on LB agar containing 3.33 μM POM-HEX and incubating at 37°C overnight. Surviving single colonies were grown overnight in LB media and frozen in 10% glycerol for long term storage. All assays were performed from fresh overnight inoculations from glycerol stocks.

[2] = tested on: S. aureus Newman; assay: Minimum inhibitory concentration (MIC) in liquid LB media; type: cell-based; settings: Staphylococcus aureus, NEWMAN
Method: (§1) Antibiotic resistance frequency was determined on LB agar plates containing 4× and 10×, the minimum inhibitory concentrations of several antibiotics. MICs were determined for S. aureus Newman in liquid LB media. […] Briefly, S. aureus Newman was grown in LB media to late log-phase and centrifuged at 4000 × g for 15 min before resuspension at an OD600 nm of 30 (~1E11 CFU/mL) in LB media. One hundred microliter aliquots of concentrated S. aureus was plated in duplicate on selective and non-selective plates and incubated at 37°C. After 24 hr, mutation rates were calculated by counting the number of colonies present and dividing by the total number of colonies plated. Experiments were performed in triplicate.

[3] = tested on: S. aureus Newman; type: cell-based, Staphylococcus aureus; settings: LB agar, 24 hr, mean ± SD
Method: as §1

[4] = tested on: GloB; design: method as in Mikati et al., 2020; settings: ref Mikati et al., 2020; cited from earlier work

Which results are given for CC(C)(C)C(=O)OCOP(=O)(OCOC(=O)C(C)(C)C)C1CCCN(O)C1=O (stereo not shown) [POM-HEX]?
IC50 ([1]; 10 h, read-out: POM-HEX IC50, S. aureus JE2 parental strain, OD600 at 10 hr): 1.54 µM; IC50 ([1]; read-out: POM-HEX IC50, transposon mutant NE64 (hemY, SAUSA300_1781)): 1.43 µM; IC50 ([1]; read-out: POM-HEX IC50, transposon mutant NE145 (uvrA, SAUSA300_0742)): 1.46 µM; IC50 ([1]; read-out: POM-HEX IC50, transposon mutant NE202 (SAUSA300_1902)): 0.7 µM; IC50 ([1]; read-out: POM-HEX IC50, transposon mutant NE223 (truA, SAUSA300_2173)): 1.39 µM; IC50 ([1]; read-out: POM-HEX IC50, transposon mutant NE293 (SAUSA300_1285)): 1.41 µM; IC50 ([1]; read-out: POM-HEX IC50, transposon mutant NE355 (gbaA, SAUSA300_2515)): 1.73 µM; IC50 ([1]; read-out: POM-HEX IC50, transposon mutant NE364 (SAUSA300_0671)): 1.65 µM; IC50 ([1]; read-out: POM-HEX IC50, transposon mutant NE377 (GloB, SAUSA300_1505)): 10.6 µM; IC50 ([1]; read-out: POM-HEX IC50, transposon mutant NE386 (rot, SAUSA300_1708)): 1.4 µM; IC50 ([1]; read-out: POM-HEX IC50, transposon mutant NE478 (phnE, SAUSA300_0142)): 1.61 µM; IC50 ([1]; read-out: POM-HEX IC50, transposon mutant NE503 (estA, FrmB, SAUSA300_2564)): 6.28 µM; IC50 ([1]; read-out: POM-HEX IC50, transposon mutant NE520 (proC, SAUSA300_1452)): 1.47 µM; IC50 ([1]; read-out: POM-HEX IC50, transposon mutant NE532 (SAUSA300_2473)): 1.56 µM; IC50 ([1]; read-out: POM-HEX IC50, transposon mutant NE541 (SAUSA300_0201)): 1.6 µM; IC50 ([1]; read-out: POM-HEX IC50, transposon mutant NE621 (SAUSA300_0581)): 1.62 µM; IC50 ([1]; read-out: POM-HEX IC50, transposon mutant NE812 (SAUSA300_0299)): 1.64 µM; IC50 ([1]; read-out: POM-HEX IC50, transposon mutant NE929 (mtlF, SAUSA300_2105)): 1.7 µM; IC50 ([1]; read-out: POM-HEX IC50, transposon mutant NE937 (fruC, SAUSA300_1993)): 1.67 µM; IC50 ([1]; read-out: POM-HEX IC50, transposon mutant NE949 (hsdM2, SAUSA300_1752)): 1.73 µM; IC50 ([1]; read-out: POM-HEX IC50, transposon mutant NE1039 (psuG, SAUSA300_0312)): 1.73 µM; IC50 ([1]; read-out: POM-HEX IC50, transposon mutant NE1071 (capD, SAUSA300_0538)): 1.54 µM; IC50 ([1]; read-out: POM-HEX IC50, transposon mutant NE1118 (dapD, SAUSA300_1290)): 1.69 µM; IC50 ([1]; read-out: POM-HEX IC50, transposon mutant NE1127 (lpl4, SAUSA300_0414)): 1.72 µM; IC50 ([1]; read-out: POM-HEX IC50, transposon mutant NE1173 (SAUSA300_1792)): 1.84 µM; IC50 ([1]; read-out: POM-HEX IC50, transposon mutant NE1225 (SAUSA300_0421)): 2.15 µM; IC50 ([1]; read-out: POM-HEX IC50, transposon mutant NE1238 (SAUSA300_0214)): 2.08 µM; IC50 ([1]; read-out: POM-HEX IC50, transposon mutant NE1283 (tnp, SAUSA300_0028)): 2.1 µM; IC50 ([1]; read-out: POM-HEX IC50, transposon mutant NE1296 (saeS, SAUSA300_0690)): 2.07 µM; IC50 ([1]; read-out: POM-HEX IC50, transposon mutant NE1486 (phoP, SAUSA300_1639)): 2.18 µM; IC50 ([1]; read-out: POM-HEX IC50, transposon mutant NE1505 (SAUSA300_0840)): 2.2 µM; IC50 ([1]; read-out: POM-HEX IC50, transposon mutant NE1519 (accC, SAUSA300_1563)): 1.75 µM; IC50 ([1]; read-out: POM-HEX IC50, transposon mutant NE1547 (SAUSA300_2508)): 1.48 µM; IC50 ([1]; read-out: POM-HEX IC50, transposon mutant NE1610 (pdhD, SAUSA300_0996)): 1.23 µM; IC50 ([1]; read-out: POM-HEX IC50, transposon mutant NE1682 (hlgB, SAUSA300_2367)): 1.37 µM; IC50 ([1]; read-out: POM-HEX IC50, transposon mutant NE1723 (SAUSA300_0094)): 1.34 µM; MIC [2]: 3.13 µg/mL (≈ 7.39 µM); Mutational frequency at 4× MIC [3]: 5.96 ± 1.60 E-07; Mutational frequency at 10× MIC [3]: 2.92 ± 0.57 E-07; Prodrug activation product with GloB, in words [4]: removes only one POM moiety
